{"source": "patent US11850266B2", "about": "“Cardiomyocytes and compositions and methods for producing the same” (President and Fellows of Harvard College, priority 2019, dated 2023)", "key": {"[1]": {"system": "iPSC-derived cardiomyocytes", "experiment": "Muscular thin film (MTF) contractile force", "type": "cell-based, human", "conditions": "Torin1 200 nM 7 days, MTFs, FIG. 2F", "protocol": "Gelatin muscular thin films (MTFs) were prepared as previously described (32). Square 22×22 mm glass coverslips were covered with low adhesive tape (Patco 5560 Removable Protective Film Tape), and an Epilog Mini 24 laser engraving instrument was used to cut the tape such that two inner rectangles (3×10 mm for cantilever region and 7×10 mm for base region) were surrounded by an outer border. The larger inner rectangle was peeled away and this region was activated with 0.1 M NaOH for 5 minutes, then 0.5% (3-aminopropyl)triethoxysilane (APTES) in 95% ethanol for 5 minutes, then 0.5% glutaraldehyde solution for 30 minutes. The glass coverslips were then rinsed and dried. Next, the tape covering the smaller inner rectangle region was peeled away. A 20% w/v stock gelatin (175 g bloom, Type A, Sigma) in distilled water solution was dissolved at 65° C. for 30 minutes and an 8% w/v stock microbial transglutaminase (MTG) (Ajinomoto) in distilled water solution was dissolved at 37° C. for 30 minutes. […] The radius of curvature for each MTF was quantified using ImageJ. Thickness of the MTF was determined using a Zeiss LSM confocal microscope. […] The maximum and average systolic, diastolic, and twitch (systolic—diastolic stress) stresses were calculated for each MTF."}, "[2]": {"system": "iPSC-derived cardiomyocytes", "experiment": "qPCR mRNA expression in iPSC-derived cardiomyocytes", "type": "cell-based, human", "protocol": "To prepare for differentiation, iPSCs were plated at a density between 20,000 to 80,000 cells (depending on the cell line) per well of a 12-well plate at four days prior to onset of differentiation. Cells were differentiated according to the protocol previously described by Lian et al. with some modifications (FIG. 1A) (1). Basal media was changed from StemFlex to RPMI/B27 on day 0 of differentiation. The GSK3 inhibitor, CHIR99021 (6 μM), was added for 48 hours from day 0 to day 2 of differentiation when cells were approximately 70-80% confluent. The Wnt antagonist IWP4 (5 μM) was added from days 2 to 4 of differentiation. Insulin (10 μg/ml) was added to the media starting on day 7 of differentiation, and media was changed every 2-3 days. In general, higher purity (TNNT2+) cardiomyocytes were observed when beating initiated prior to day 10 of differentiation, therefore only batches with onset of beating between days 7-10 of differentiation were included in this study. Beating cardiomyocytes were treated with Torin1 (200 nM, unless otherwise noted) or vehicle (0.02% dimethylsulfoxide (DMSO)) beginning at ˜2 days after onset of beating for 7 days (media changed with fresh Torin1 or DMSO every 2-3 days), unless otherwise noted. After Torin1 treatment, media was switched back to RPMI/B27/insulin and maintained with media change every 2-3 days until endpoint assay. In a few assays, fatty acids were added in the form of chemically defined lipids (Gibco) diluted 1:1000 simultaneous with Torin1 treatment. In some other assays, fetal bovine serum (10% FBS) was added to cells after completion of Torin treatment for 2-4 days.\nRNA was extracted from cells using RiboZol (VWR) followed by the E.Z.N.A. Total RNA I kit (Omega) then reverse transcribed to cDNA with the High Capacity cDNA Reverse Transcription kit (Thermo Fisher Scientific) according to the manufacturer's instructions. Quantitative PCR (qPCR) was performed using the iTaq Universal SYBR Green Supermix (Bio-Rad) and the primer pairs listed in Table 1 with a Bio-Rad CFX384 Real-Time thermal cycler. TATA-binding protein (TBP) was used as the housekeeping gene."}, "[3]": {"conditions": "Torin1 10-200 nM, 7 days, BJRiPS-CMs, FIG. 1E"}}, "data": [{"smiles": "CCC(=O)N1CCN(c2ccc(-n3c(=O)ccc4cnc5ccc(-c6cnc7ccccc7c6)cc5c43)cc2C(F)(F)F)CC1", "note": "[Torin1]", "values": [{"measurement": "relative maximum systolic force versus control", "setting": "[1]", "result": "~2", "unit": "fold"}, {"measurement": "mRNA expression of TNNI3, CACNA1c and SERCA2a", "setting": "[2]; 200 nM Torin1 about two days after onset of beating, BJRiPS, FIGS. 18B-18D", "result": "robust increase in mRNA expression"}, {"measurement": "fatty acid transport protein 6 (FATP6) mRNA", "setting": "[2]; FIG. 3F", "result": "increase in mRNA expression"}, {"measurement": "HCN4 mRNA", "setting": "[2]; FIG. 4A", "result": "non-significant trend of increased HCN4"}, {"measurement": "selected mitochondrial genes (qPCR) or proteins (western)", "setting": "[2]; FIGS. 13A-13B", "result": "Significant changes in selected mitochondrial genes (FIG. 13A) or proteins (FIG. 13B) were not observed"}, {"measurement": "E2F4 mRNA", "setting": "[2]; Torin1 200 nM from day 9, BJRiPS, FIG. 25B", "result": "increased mRNA expression of the inhibitory E2F member, E2F4"}, {"measurement": "RBL2 (p130) mRNA", "setting": "[2]; Torin1 200 nM from day 9, FIG. 25C", "result": "increased mRNA expression of RBL2"}, {"measurement": "MDM2 mRNA", "setting": "[2]; Torin1 200 nM from day 9, FIG. 25D", "result": "decreased mRNA expression of the E2 ubiquitin-protein ligase, MDM2"}, {"measurement": "MYH6, MYH7, TNNT2 mRNA", "setting": "[2]; Torin1 10, 50, 200 nM, 7 days, BJRiPS-CMs, FIG. 2A", "result": "trended toward increased expression"}, {"measurement": "PPARGC1a mRNA expression", "setting": "[2]; Torin1 10, 50, 200 nM, 7 days, FIG. 3F", "result": "dose-dependent increase"}, {"measurement": "cyclin C1 and E2F1 proliferative markers (qPCR)", "setting": "[2]; [3]", "result": "significant decrease"}, {"measurement": "expression of quiescence markers including p16 and p130 (qPCR)", "setting": "[2]; [3]", "result": "non-significant trends toward increased expression"}, {"measurement": "KCNJ2, CACNA1c, RYR2, ATP2A2 (SERCA2A), SCN5A mRNA", "setting": "[2]; Torin1 10 or 200 nM, 7 days, FIG. 4A", "result": "significant dose-dependent increase"}, {"measurement": "mRNA expression of p21", "setting": "[2]; discussion of Example 1", "result": "significantly decreased mRNA expression"}, {"measurement": "TNNI3 mRNA expression", "setting": "[2]; dose-dependent, Torin1 10, 50, 200 nM, 7 days, FIG. 2A", "result": "significantly increased"}, {"measurement": "E2F1 mRNA", "setting": "[2]; immediately after Torin1 treatment, transient increase at ~5 days, FIG. 25A", "result": "trend toward decreased mRNA expression of the stimulatory E2F member, E2F1"}, {"measurement": "TNNI3 expression by time of Torin1 initiation (qPCR)", "setting": "[2]; initiation about 2 days after onset of beating, BJRiPS, FIG. 20A", "result": "trend toward higher TNNI3 expression"}, {"measurement": "CDKN1a (p21) mRNA", "setting": "[2]; trend, Torin1 200 nM from day 9, FIG. 25E", "result": "decreased mRNA expression of the cyclin inhibitor CDKN1a (p21)"}, {"measurement": "CDK2 mRNA", "setting": "[2]; trend, Torin1 200 nM from day 9, FIG. 25F", "result": "increased mRNA expression of the cyclin-dependent kinase, CDK2"}]}]}
